Results taken from ChEMBL document CHEMBL1201862, “PubChem BioAssay data set” (2004).
Activity calls are given as the source filed them.

Assays:
[1] = target: Induced myeloid leukemia cell differentiation protein Mcl-1 (Homo sapiens, UniProt Q07820); experiment: MCL1-BIM BH3 interaction inhibitors, dose response, biochemical, fluorescence polarization, BIM-BH3 peptide, 1536-well (AID 2217)
Bcl-2-like protein 1 = Bcl-2-like protein 1 (Homo sapiens, UniProt Q07817); experiment: BCL-XL inhibitors, dose response, selectivity assay for MCL1 inhibitor project, biochemical, fluorescence polarization, 1536-well (AID 2218)
Protein Tat = Protein Tat (Human immunodeficiency virus type 1 group M subtype B (isolate HXB2)(HIV-1), UniProt P04608); format: functional;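 further: tat binding to TAR RNA read out by fluorescence polarization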
[2] = THP-1 cell cytotoxicity, dose response, cytotoxicity control for Vif-APOBEC3G degradation inhibitor project, THP-1 cells (AID 1117359); format: functional; conditions: Human immunodeficiency virus 1, THP-1
[3] = inhibitors of Vif binding to APOBEC3G peptide, primary screen, biochemical, TR-FRET, GST-Vif 1-94, biotin-A3G peptide, dose response retest (AID 1117319); format: functional;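 further: TR-FRET signal of purified GST-Vif binding a biotinylated A3G peptide; inhibitors lower the FRET signal by blocking Vif and A3G binding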
[4] = target: Peroxisome proliferator-activated receptor gamma/Nuclear receptor coactivator 2 (Homo sapiens, UniProt P37231); format: functional;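 further: agonist potency for raising coactivator recruitment to the receptor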
[5] = target: Peroxisome proliferator-activated receptor gamma/Nuclear receptor coactivator 1 (Homo sapiens, UniProt P37231); format: functional;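 further: agonist potency as compounds enhance coactivator SRC-1 recruitment to PPARgamma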
[6] = target: Peroxisome proliferator-activated receptor gamma/Nuclear receptor coactivator 3 (Homo sapiens, UniProt P37231); format: functional;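 further: agonist potency for raising coactivator recruitment to the receptor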
[7] = target: Mitogen-activated protein kinase 10 (Homo sapiens, UniProt P53779); experiment: Dose response biochemical screening assay for inhibitors of c-Jun N-Terminal Kinase 3 (JNK3). [Related pubchem assays: 746 ]
[8] = target: T1, Calpain-2 catalytic subunit (Sus scrofa, UniProt P43367); experiment: pig calpain II inhibitor potency, dose response, biochemical, fluorogenic peptide substrate (AID 1420); format: functional
T1 sequence (P43367 whole entry): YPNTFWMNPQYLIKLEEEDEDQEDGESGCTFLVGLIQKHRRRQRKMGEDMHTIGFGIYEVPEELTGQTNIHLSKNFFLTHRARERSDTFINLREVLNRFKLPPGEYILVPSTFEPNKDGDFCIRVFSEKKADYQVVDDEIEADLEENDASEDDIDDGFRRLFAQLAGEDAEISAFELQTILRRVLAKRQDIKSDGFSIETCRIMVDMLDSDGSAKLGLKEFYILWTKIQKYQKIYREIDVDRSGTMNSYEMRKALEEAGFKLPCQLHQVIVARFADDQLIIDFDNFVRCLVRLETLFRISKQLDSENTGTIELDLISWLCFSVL

Transthyretin = Transthyretin (Homo sapiens, UniProt P02766); experiment: Luminescence-based cell-based high throughput dose response assay to identify activators of Transthyretin (TTR) transcription.; format: functional
[9] = target: T2, Heat shock protein HSP 90-alpha (Homo sapiens, UniProt P07900); experiment: Luminescence-based dose response biochemical high throughput screening assay for inhibitors of the Heat Shock Protein 90 (HSP90). [Related pubchem assays: 1831 (Summary AID.), 1846 (Confirmation screen.), 1789 (Primary screen.)]
[10] = target: T3, Sphingosine 1-phosphate receptor 2 (Homo sapiens, UniProt O95136); experiment: Dose Response Cell Based Assay for Agonists of the S1P2 Receptor. [Related pubchem assays: 729, 736, 843 ]; format: functional
NADPH oxidase 1 [11] = target: T4, NADPH oxidase 1 (Homo sapiens, UniProt Q9Y5S8); experiment: Late stage results from the probe development effort to identify inhibitors of NOX1: HEK/293 IC50. [Related pubchem assays: 1796 (Summary AID (NOX1)), 2752 (Primary screen (NOX1 inhibitors, synthesized analogs set 2)), 2664 (Primary screen (NOX1 inhibitors, synthesized analogs)), 1792 (Primary Screen (NOX1)), 2545 (Confirmation screen (NOX1 …; format: functional
NADPH oxidase 1 [12] = target: T4, NADPH oxidase 1; experiment: NOX1 inhibitors, concentration-response, dose response, cell-based, luminescence, cherry picks 2 (AID 434997); format: functional
[13] = target: T3, Sphingosine 1-phosphate receptor 2; experiment: Dose Response Cell Based Assay for Antagonists of the S1P2 Receptor. [Related pubchem assays: 856, 736 ]; format: functional
[14] = HepG2 cell cytotoxicity, dose response, cytotoxicity control, CellTiter-Glo luminescence, dry powder, set 20 (AID 1117291); format: functional, cell-based
[15] = HEK293T cell cytotoxicity, dose response, cytotoxicity control, CellTiter-Glo luminescence, dry powder, set 20 (AID 1117293); format: functional, cell-based; conditions: HEK293
[16] = target: Metabotropic glutamate receptor 7 (Homo sapiens, UniProt Q14831); experiment: mGlu7 positive allosteric modulators, dose response, cell-based, calcium mobilization, Galpha15 (AID 743384); format: functional
[17] = HepG2 cell cytotoxicity, dose response, cytotoxicity control, plate reader, dry powder, set 6 (AID 743311); format: functional, cell-based
cells = conditions: HEK293
[18] = test system: Streptococcus sp. 'group A'; experiment: growth inhibition of control SK(-) GAS strain, dose response, counter-screen for streptokinase expression inhibitor project, luminescence, kanamycin, BacTiterGlo, confirmation (AID 1900); format: functional, organism-based
Streptococcus = experiment: Group A Streptococcus viability loss, dose response, counter-screen for streptokinase expression inhibitor project, luminescence, BacTiterGlo (AID 1915); format: functional, organism-based;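 further: potency for reduction of bacterial viability or growth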
Hexokinase = target: T5, Hexokinase (Trypanosoma brucei, UniProt Q38C41); experiment: Confirmation assay for inhibitors of Trypanosoma brucei hexokinase 1-Analogue-first series. [Related pubchem assays (depositor defined):AID1430, AID1632, AID2516, AID2560, AID2579, AID2600, AID449725, AID492951]; format: functional
T5 sequence (Q38C41 whole entry): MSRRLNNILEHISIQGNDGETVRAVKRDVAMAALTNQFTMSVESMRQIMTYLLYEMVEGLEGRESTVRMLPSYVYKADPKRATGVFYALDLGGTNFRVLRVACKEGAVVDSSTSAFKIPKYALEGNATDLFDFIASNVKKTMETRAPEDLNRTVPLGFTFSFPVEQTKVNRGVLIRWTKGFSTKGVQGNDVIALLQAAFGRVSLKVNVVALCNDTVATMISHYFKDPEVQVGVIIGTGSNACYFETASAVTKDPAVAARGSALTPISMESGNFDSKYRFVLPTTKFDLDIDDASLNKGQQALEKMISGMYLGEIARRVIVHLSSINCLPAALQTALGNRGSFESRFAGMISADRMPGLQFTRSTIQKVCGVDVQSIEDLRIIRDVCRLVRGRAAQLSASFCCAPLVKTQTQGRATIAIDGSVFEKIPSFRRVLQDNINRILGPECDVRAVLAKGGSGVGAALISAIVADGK

[19] = target: T6, Small ubiquitin-related modifier 1 (Homo sapiens, UniProt P63165); experiment: inhibitors of SUMO1 peptide binding, dose response, biochemical, fluorescence polarization, uHTS hits (AID 624382); format: functional; conditions: read-out: IC50_Mean
[20] = target: T6, Small ubiquitin-related modifier 1; experiment: inhibitors of SUMO1 partner interactions, dose response, biochemical, FRET (AID 624383); format: functional; conditions: read-out: IC50_Mean
[21] = Concentration-dependent survival of SW480 colon cancer line, luminescence detection with CellTiter-Glo, half-maximal inhibitory concentration (AID 1117338); format: functional
[22] = RKO cell viability reduction, dose response, CellTiter-Glo luminescence (AID 1117322); format: functional
[23] = cytotoxicity toward HCT116 cells – cell-based, CellTiter-Glo luminescence, IC50, dose response (AID 1117332); format: functional; conditions: HCT-116
[24] = SNU-C1 cell viability reduction, dose response, CellTiter-Glo luminescence (AID 1117323); format: functional, cell-based
[25] = cytotoxicity toward Colo320 cells – cell-based, CellTiter-Glo luminescence, IC50, dose response (AID 1117334); format: functional; conditions: COLO 320
[26] = cytotoxicity toward HT-29 cells – cell-based, CellTiter-Glo luminescence, IC50, dose response (AID 1117330); format: functional
[27] = CellTiter-Glo luminescent dose response of DLD-1 viability loss (AID 1117352); format: functional
[28] = HeLa 2N DNA content increase, dose response, cell-based, IC50 (AID 1117349); format: functional
[29] = HeLa 4N DNA content increase, dose response, cell-based, IC50 (AID 1117351); format: functional
[30] = HCT116 cell viability decrease, GSK3B pretreatment – CellTiter-Glo, IC50, dose response (AID 1117339); format: functional; conditions: HCT-116
[31] = Luminescent dose response cell-based high throughput screening assay for inhibitors of the Janus kinase 2 mutant JAK2V617F. [Related pubchem assays: 1446 (Primary screen.), 1521 (Confirmation assay.), 1486 (Counter screen.)]; format: functional
[32] = target: E3 ubiquitin-protein ligase Mdm2 (Homo sapiens, UniProt Q00987); experiment: enhancers of MDM2-luciferase reporter signal, concentration-effect titration, project on inhibitors of MDM2 ubiquitin ligase, cellular assay, luminescent readout, 384-well plate format (AID 1394); format: functional;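 further: MDM2 E3 inhibitors raise luminescence so EC50 is for signal enhancement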
[33] = target: Bifunctional protein GlmU (Mycobacterium tuberculosis, UniProt P9WMN3); experiment: Inhibitors of Mycobacterial Glucosamine-1-phosphate acetyl transferase (GlmU). Secondary screen.; set-up: species or system Mycobacterium tuberculosis H37Rv
[34] = target: T2, Heat shock protein HSP 90-alpha; format: functional, organism-based
[35] = Dose-response inhibition of insulin secretion in a rat insulinoma line at 5 mM glucose (AID 1117331); format: functional, cell-based; conditions: INS-1E
[36] = Glucagon-like peptide 1 release potency, NCI-H716 cell line, dose-response, half-maximal inhibitory concentration (AID 1117344); format: functional, cell-based

T3 sequence (O95136 whole entry): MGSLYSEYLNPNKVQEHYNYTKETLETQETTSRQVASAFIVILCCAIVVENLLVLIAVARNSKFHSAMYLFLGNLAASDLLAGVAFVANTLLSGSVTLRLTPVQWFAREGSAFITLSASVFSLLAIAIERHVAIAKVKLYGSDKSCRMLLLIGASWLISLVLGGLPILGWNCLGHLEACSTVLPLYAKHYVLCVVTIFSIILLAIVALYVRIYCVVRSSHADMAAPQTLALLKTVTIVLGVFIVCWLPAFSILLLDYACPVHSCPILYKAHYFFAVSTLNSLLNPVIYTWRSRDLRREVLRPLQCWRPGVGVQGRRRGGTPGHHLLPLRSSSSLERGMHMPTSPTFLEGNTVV
T6 sequence (P63165 whole entry): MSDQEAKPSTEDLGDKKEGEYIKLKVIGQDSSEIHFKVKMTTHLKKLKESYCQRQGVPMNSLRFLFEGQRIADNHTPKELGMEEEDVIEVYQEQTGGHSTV
T4 sequence (Q9Y5S8 whole entry): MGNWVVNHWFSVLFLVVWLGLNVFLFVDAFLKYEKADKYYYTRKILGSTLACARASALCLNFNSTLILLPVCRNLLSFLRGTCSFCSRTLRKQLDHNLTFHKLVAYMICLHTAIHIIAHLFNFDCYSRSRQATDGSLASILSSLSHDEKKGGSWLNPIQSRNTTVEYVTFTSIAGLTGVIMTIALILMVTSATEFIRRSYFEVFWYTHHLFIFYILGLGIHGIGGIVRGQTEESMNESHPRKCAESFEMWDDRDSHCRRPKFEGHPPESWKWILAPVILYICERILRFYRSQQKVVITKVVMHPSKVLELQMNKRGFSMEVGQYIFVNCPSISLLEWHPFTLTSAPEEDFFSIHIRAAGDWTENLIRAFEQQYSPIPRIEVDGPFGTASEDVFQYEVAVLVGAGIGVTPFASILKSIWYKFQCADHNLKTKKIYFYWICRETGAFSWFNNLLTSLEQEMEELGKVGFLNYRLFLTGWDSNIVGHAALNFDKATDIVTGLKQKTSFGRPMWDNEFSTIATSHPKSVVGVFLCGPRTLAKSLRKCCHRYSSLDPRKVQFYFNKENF
Peroxisome proliferator-activated receptor gamma/Nuclear receptor coactivator 1, sequence (P37231 whole entry): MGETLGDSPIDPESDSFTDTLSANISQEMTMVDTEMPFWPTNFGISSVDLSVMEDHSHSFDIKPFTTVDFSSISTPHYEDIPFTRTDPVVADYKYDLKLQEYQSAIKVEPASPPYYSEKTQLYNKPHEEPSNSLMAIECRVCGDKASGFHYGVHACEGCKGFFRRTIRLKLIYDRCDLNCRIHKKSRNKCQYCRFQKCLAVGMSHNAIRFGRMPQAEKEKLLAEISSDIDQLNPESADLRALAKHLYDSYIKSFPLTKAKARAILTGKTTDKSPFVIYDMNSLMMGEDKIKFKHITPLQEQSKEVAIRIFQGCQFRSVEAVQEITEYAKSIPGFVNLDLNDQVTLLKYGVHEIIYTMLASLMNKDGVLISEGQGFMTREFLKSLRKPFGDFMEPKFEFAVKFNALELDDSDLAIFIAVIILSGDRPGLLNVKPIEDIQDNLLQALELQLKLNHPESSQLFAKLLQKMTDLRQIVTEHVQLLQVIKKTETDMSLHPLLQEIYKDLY
Peroxisome proliferator-activated receptor gamma/Nuclear receptor coactivator 1, sequence (Q15788 whole entry, further chain): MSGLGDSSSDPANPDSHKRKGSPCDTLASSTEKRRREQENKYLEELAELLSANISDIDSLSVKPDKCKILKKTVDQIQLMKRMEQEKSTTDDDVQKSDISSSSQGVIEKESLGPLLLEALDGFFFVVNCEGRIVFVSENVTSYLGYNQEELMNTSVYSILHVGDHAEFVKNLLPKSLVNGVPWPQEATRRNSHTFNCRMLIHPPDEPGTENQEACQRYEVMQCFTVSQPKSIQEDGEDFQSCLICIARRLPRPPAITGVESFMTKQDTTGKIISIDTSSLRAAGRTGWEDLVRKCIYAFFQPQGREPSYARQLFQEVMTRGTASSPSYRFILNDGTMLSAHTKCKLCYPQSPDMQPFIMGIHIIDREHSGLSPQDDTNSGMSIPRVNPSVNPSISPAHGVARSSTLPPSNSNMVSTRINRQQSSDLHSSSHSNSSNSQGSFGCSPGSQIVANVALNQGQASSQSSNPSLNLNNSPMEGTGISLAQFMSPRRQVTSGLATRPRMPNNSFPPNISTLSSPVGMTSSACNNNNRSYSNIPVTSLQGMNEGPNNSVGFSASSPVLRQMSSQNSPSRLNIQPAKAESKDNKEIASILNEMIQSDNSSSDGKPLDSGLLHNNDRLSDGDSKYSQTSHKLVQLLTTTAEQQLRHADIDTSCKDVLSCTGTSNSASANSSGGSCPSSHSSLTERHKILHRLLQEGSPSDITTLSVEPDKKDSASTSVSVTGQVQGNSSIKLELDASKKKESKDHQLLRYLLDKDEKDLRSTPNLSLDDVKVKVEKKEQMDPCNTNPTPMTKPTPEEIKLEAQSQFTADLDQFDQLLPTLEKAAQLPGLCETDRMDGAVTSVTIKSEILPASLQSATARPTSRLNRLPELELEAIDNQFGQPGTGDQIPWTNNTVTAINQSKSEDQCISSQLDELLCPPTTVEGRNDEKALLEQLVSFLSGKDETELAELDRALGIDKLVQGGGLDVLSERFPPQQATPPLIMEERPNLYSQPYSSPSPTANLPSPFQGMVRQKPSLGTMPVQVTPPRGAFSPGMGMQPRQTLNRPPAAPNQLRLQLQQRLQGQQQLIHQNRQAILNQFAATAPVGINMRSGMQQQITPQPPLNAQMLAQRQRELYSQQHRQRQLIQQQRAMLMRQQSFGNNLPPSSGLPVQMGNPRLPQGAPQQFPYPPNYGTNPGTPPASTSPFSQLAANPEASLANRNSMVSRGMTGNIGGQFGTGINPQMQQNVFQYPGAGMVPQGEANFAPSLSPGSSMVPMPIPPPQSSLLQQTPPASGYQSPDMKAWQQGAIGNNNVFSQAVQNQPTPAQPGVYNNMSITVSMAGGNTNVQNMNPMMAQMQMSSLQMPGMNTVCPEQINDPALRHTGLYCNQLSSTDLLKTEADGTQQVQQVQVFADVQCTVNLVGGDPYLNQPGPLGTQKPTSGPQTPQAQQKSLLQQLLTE
Peroxisome proliferator-activated receptor gamma/Nuclear receptor coactivator 3, sequence (P37231 whole entry): as the sequence (P37231 whole entry) above
Peroxisome proliferator-activated receptor gamma/Nuclear receptor coactivator 3, sequence (Q9Y6Q9 whole entry, further chain): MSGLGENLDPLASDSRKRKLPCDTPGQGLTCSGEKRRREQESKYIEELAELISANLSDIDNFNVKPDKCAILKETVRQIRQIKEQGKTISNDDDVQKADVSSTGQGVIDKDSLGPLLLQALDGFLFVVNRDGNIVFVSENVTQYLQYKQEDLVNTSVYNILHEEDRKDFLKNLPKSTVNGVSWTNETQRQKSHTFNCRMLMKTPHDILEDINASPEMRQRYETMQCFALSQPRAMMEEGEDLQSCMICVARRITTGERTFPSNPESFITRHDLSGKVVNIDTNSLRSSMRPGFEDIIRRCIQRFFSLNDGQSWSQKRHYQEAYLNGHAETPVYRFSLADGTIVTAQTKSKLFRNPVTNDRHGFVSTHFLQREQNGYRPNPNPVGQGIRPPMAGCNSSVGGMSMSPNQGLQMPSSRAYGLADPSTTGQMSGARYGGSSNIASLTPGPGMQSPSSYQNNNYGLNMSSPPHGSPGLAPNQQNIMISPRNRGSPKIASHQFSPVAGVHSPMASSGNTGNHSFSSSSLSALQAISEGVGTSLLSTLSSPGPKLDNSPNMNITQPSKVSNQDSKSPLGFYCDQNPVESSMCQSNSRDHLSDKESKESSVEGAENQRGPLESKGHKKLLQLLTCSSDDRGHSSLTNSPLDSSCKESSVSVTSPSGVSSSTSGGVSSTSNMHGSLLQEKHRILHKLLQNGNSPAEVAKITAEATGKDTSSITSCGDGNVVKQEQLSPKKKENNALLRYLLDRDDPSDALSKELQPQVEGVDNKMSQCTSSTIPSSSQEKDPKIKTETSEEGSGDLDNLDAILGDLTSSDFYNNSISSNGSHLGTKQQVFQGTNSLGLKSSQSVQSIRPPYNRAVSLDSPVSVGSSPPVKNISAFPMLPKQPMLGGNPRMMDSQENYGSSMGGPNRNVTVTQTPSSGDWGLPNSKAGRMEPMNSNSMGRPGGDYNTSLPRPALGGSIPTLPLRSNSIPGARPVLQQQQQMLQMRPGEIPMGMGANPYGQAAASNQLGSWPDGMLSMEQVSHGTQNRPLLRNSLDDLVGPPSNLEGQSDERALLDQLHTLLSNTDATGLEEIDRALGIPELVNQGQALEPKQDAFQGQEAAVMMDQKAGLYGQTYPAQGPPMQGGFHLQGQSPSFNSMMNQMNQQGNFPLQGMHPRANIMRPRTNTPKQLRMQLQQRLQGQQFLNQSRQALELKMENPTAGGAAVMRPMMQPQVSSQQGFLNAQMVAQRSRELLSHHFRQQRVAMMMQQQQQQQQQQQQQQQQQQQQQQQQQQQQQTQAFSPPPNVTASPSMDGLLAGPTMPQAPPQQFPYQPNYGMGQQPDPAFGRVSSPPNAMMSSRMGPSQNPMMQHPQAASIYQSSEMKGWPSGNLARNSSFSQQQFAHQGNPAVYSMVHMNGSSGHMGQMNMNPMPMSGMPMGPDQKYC
Protein Tat, sequence (P04608 whole entry): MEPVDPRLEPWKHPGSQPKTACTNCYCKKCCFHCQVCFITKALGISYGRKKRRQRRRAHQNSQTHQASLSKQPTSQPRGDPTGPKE

O=C(c1cc(-c2ccco2)nn1-c1cccc(Cl)c1)N1CCCCC1
IC50 [1]: > 109 µM (not active) | IC50 (Bcl-2-like protein 1): > 109 µM (not active) | IC50 (Protein Tat): > 100 µM (inconclusive) | CC50 [2]: > 40 µM (active) | IC50 [3]: > 60.7 µM (active)

Cn1c(C(=O)NCc2ccco2)cc2c(=O)[nH]c3ccccc3c21
EC50 [4]: > 79.4 µM (not active) | EC50 [5]: > 79.4 µM (not active) | EC50 [6]: > 79.4 µM (not active) | IC50 [7]: 31.4 µM (not active)

c1cc2c(cc1C1=Nn3c(nnc3C3CCCCC3)SC1)OCO2
IC50 [8]: 10.9 µM (not active) | EC50 (Transthyretin): > 167 µM (inactive)

O=[N+]([O-])c1ccc(S(=O)(=O)N2CCN=C2SCc2ccc(F)cc2)cc1
IC50 [9]: 4.79 µM (active)

Cc1cccc(C(=O)NC2CC3CCCC(C2)N3C(=O)NC2CCCCC2)c1 (stereo not drawn)
EC50 [10]: > 50 µM (not active)

CN(C)c1ccc(NC(=O)Nc2ccc(OCc3ccccc3)cc2)cc1
IC50 (NADPH oxidase 1 [11]): 2.37 µM (active) | IC50 (NADPH oxidase 1 [12]): 0.23 µM (active)

Cc1nc(-c2cccs2)sc1C(=O)Nc1ccc(F)cc1
IC50 [13]: > 30 µM (not active)

O=S(=O)(Nc1cc(C(F)(F)F)ccc1N1CCCCC1)c1cc(Cl)cc(Cl)c1
AC50 [14]: 45.8 µM (active) | AC50 [15]: 41 µM (active)

CC(=O)Nc1ccc(SCC(=O)c2cc(C)n(-c3cccc(F)c3)c2C)cc1
EC50 [16]: 1.6 µM (active)

Sc1nc2cc(Cl)ccc2n1CCOc1ccccc1
AC50 [17]: > 52 µM (inactive) | AC50 (cells): > 52 µM (inactive)

Cc1cc(C(C#N)c2ccc(Cl)cc2)c(Cl)cc1NC(=O)c1cc(I)cc(I)c1O (stereo not drawn) [CLOSANTEL]
EC50 [18]: 0.114 µM (active) | EC50 (Streptococcus): 0.092 µM (active) | IC50 (Hexokinase): 25 µM (inactive) | IC50 [19]: > 66.6 µM (inactive) | IC50 [20]: 6.59 µM (active) | IC50 [21]: 0.046 µM (active) | IC50 [22]: 0.197 µM (active) | IC50 [23]: 0.0978 µM (active) | IC50 [24]: 0.0438 µM (active) | IC50 [25]: 0.116 µM (active) | IC50 [26]: 0.126 µM (active) | IC50 [27]: 0.069 µM (active)

CC(=O)O[C@@]12CO[C@@H]1C[C@H](O)[C@@]1(C)C(=O)[C@H](O)C3=C(C)[C@@H](OC(=O)[C@H](O)[C@@H](NC(=O)OC(C)(C)C)c4ccccc4)C[C@@](O)([C@@H](OC(=O)c4ccccc4)[C@H]21)C3(C)C [DOCETAXEL]
IC50 [28]: 0.0031 µM (active) | IC50 [21]: 0.001 µM (active) | IC50 [22]: 0.001 µM (active) | IC50 [23]: 0.001 µM (active) | IC50 [24]: > 20 µM (inactive) | IC50 [25]: 0.001 µM (active) | IC50 [29]: 0.00335 µM (active) | IC50 [26]: 0.001 µM (active) | IC50 [30]: 0.001 µM (active)

CN(C)C(=S)SSC(=S)N(C)C [THIRAM]
IC50 [31]: 0.223 µM (active) | EC50 [32]: 0.18 µM (active) | IC50 [33]: 89.3 µM (active) | AC50 [34]: 7.74 µM (active) | IC50 [35]: > 33.3 µM (inactive) | IC50 [36]: > 40 µM (inactive)
